The values that follow come from PubChem BioAssay (NCI).

Some test systems named below: SF-539 CNS; SK-MEL-28 melanoma; DMS 273 small cell lung; HOP-62 NSCLC; SK-OV-3 ovarian; U251 CNS; HCT-116 colon; DMS 114 small cell lung; OVCAR-3 ovarian; XF 498 CNS; RPMI-8226 leukemia; UACC-62 melanoma; MOLT-4 leukemia; HCC-2998 colon; NCI-H460 lung; UACC-257 melanoma.
Common to all, as to assay: NCI-60 cell line screen, 48 h

SMILES strings stand for the structures. Values joined by “and” are separate entries in the source; they are usually repeats but may differ in a detail not shown here. Equal entries are not always repeated.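 All cell lines were grown in 96-well plates and treated with compound for 48 hours. Here, GI50 denotes the concentration required for 50% inhibition of growth. At the TGI there is no net growth.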 Some results are limits rather than exact numbers.

Regarding `CC1(C)Cc2c(C#N)c(N)c3c(c2CO1)C(=O)OC3=O`, the TGI in the experiment on SF-539 CNS, with SK-MEL-28 melanoma, with DMS 273 small cell lung, in the experiment on HOP-62 NSCLC, in the experiment on SK-OV-3 ovarian and with U251 CNS was more than 100 µM throughout. Further, the TGI with HCT-116 colon, in the experiment with DMS 114 small cell lung, with OVCAR-3 ovarian, with XF 498 CNS, with RPMI-8226 leukemia and in the experiment on UACC-62 melanoma was more than 100 µM each time. Further, the TGI in the experiment on MOLT-4 leukemia, in the experiment on HCC-2998 colon and with NCI-H460 lung was more than 100 µM each time.
On to `O=C(N/N=C/c1cc(Cl)cc(Cl)c1[O-])c1ccccc1O.O=C(N/N=C/c1cc(Cl)cc(Cl)c1[O-])c1ccccc1O.[Zn+2]`, for which the GI50 was 0.852 µM in the experiment with SF-539 CNS, 0.337 µM in the experiment on HCT-116 colon and 0.0115 µM in the experiment with MOLT-4 leukemia. Moreover, the TGI amounted to 5.75 µM in the experiment on SF-539 CNS; 14.8 µM with SK-MEL-28 melanoma; 11.8 µM with SK-OV-3 ovarian; 11.8 µM in the experiment with UACC-257 melanoma; 5.93 µM in the experiment with U251 CNS; 14.5 µM in the experiment with HCT-116 colon. Also, the TGI with OVCAR-3 ovarian is 1.85 µM; in the experiment on UACC-62 melanoma, 1.84 µM; in the experiment on MOLT-4 leukemia, 18 µM; with HCC-2998 colon, 13.2 µM.
On to `S=C1CC(c2ccccc2)Sc2ccccc2N1` (stereo not given), for which the TGI with SK-MEL-28 melanoma is more than 100 µM; with HOP-62 NSCLC, 60.1 µM; in the experiment on SK-OV-3 ovarian, more than 100 µM; in the experiment on UACC-257 melanoma, more than 100 µM; in the experiment with U251 CNS it was more than 100 µM; in the experiment with HCT-116 colon, more than 100 µM. Moreover, the TGI with OVCAR-3 ovarian, in the experiment with RPMI-8226 leukemia, in the experiment on UACC-62 melanoma, in the experiment on MOLT-4 leukemia and in the experiment on NCI-H460 lung was more than 100 µM throughout.
For the compound `CC(=O)OC/C=C\Cn1nc(Br)c(=O)[nH]c1=O`, the TGI worked out at 24.7 µM in the experiment on SF-539 CNS; 32 µM with SK-MEL-28 melanoma; 45.1 µM in the experiment with HOP-62 NSCLC; 31.8 µM in the experiment on UACC-257 melanoma; 22.6 µM in the experiment with U251 CNS; 22.5 µM in the experiment on OVCAR-3 ovarian. For the same compound, the figures for the TGI in the experiment with RPMI-8226 leukemia, in the experiment with HCC-2998 colon and with NCI-H460 lung were 72.7 µM, 31.7 µM and 26.7 µM, respectively.
In the case of `CC(=O)NC(c1nc2cc(C)c(C)cc2[nH]1)c1nc2cc(C)c(C)cc2[nH]1`, the TGI turned out to be 30.5 µM with SF-539 CNS; 53.4 µM with SK-MEL-28 melanoma; 71.9 µM in the experiment on SK-OV-3 ovarian; 71.1 µM with UACC-257 melanoma; 57.9 µM in the experiment on U251 CNS; 53.7 µM in the experiment with HCT-116 colon. In addition, the TGI in the experiment with OVCAR-3 ovarian is 42.2 µM; with RPMI-8226 leukemia, 46.4 µM; in the experiment with UACC-62 melanoma it was more than 100 µM; in the experiment on MOLT-4 leukemia, 26.6 µM; in the experiment with HCC-2998 colon, 34.6 µM; in the experiment with NCI-H460 lung it was 32.8 µM.
Regarding `C/C=C/C1=CC(=O)C(O)C1O` (stereo not given), the TGI in the experiment with SF-539 CNS was determined as 55.9 µM; in the experiment on SK-MEL-28 melanoma it was 97.9 µM; with DMS 273 small cell lung it was 98.9 µM; in the experiment on HOP-62 NSCLC it was 126 µM; with SK-OV-3 ovarian it was 130 µM; in the experiment with UACC-257 melanoma it was 97.4 µM. The TGI was determined as 129 µM with U251 CNS; 96 µM in the experiment with HCT-116 colon; 72.5 µM in the experiment on DMS 114 small cell lung; 67.7 µM in the experiment with OVCAR-3 ovarian; 45.6 µM with XF 498 CNS; 102 µM with RPMI-8226 leukemia. The TGI came out at 88.6 µM in the experiment with UACC-62 melanoma, 109 µM in the experiment on MOLT-4 leukemia, 82.5 µM in the experiment on HCC-2998 colon and 51.4 µM in the experiment on NCI-H460 lung.
As to `CC1CCC2(C(=O)O)CCC3(C)C(=CCC4C5(C)CCC(O)C(C)(C)C5CCC43C)C2C1C` (stereo not given), the TGI in the experiment on SF-539 CNS was 22.5 µM and 35.6 µM; in the experiment with DMS 273 small cell lung it was 22 µM; in the experiment on HOP-62 NSCLC, 21.8 µM and 39.1 µM; with SK-OV-3 ovarian, 27 µM and 35.1 µM; with UACC-257 melanoma, 13.7 µM and 32.6 µM; in the experiment on U251 CNS, 19.8 µM and > 100 µM. Further, the TGI was 17.9 µM and > 100 µM in the experiment with HCT-116 colon; 21.5 µM with DMS 114 small cell lung; 18.4 µM and 26.8 µM in the experiment with OVCAR-3 ovarian; 11.7 µM with XF 498 CNS; 24.3 µM and 31.5 µM in the experiment with RPMI-8226 leukemia; 18.8 µM and 44 µM in the experiment with UACC-62 melanoma. The TGI in the experiment with MOLT-4 leukemia is 16.7 µM and 37.2 µM; with HCC-2998 colon, 21.8 µM and 23 µM; in the experiment on NCI-H460 lung, 24.8 µM. Further, the GI50 in the experiment with UACC-257 melanoma was 4.8 µM and 12.1 µM; in the experiment on MOLT-4 leukemia, 3.66 µM and 12.1 µM.
In the case of `COc1cccc(/C=N/[N-]C(N)=O)c1[O-].[Ni+2].[OH3+].c1ccc(-c2ccccn2)nc1`, the TGI in the experiment with SF-539 CNS, in the experiment on SK-MEL-28 melanoma, in the experiment on HOP-62 NSCLC, in the experiment with SK-OV-3 ovarian, with UACC-257 melanoma and in the experiment with U251 CNS was more than 100 µM throughout. In addition, the TGI in the experiment with HCT-116 colon, in the experiment with OVCAR-3 ovarian, with RPMI-8226 leukemia, in the experiment with UACC-62 melanoma, in the experiment on MOLT-4 leukemia and with HCC-2998 colon was more than 100 µM each time. Also, in the experiment with NCI-H460 lung, the TGI is more than 100 µM.
As for `Cc1[nH]nc(N)c1C(N)=O`, the TGI in the experiment with SF-539 CNS, in the experiment on SK-MEL-28 melanoma, in the experiment on DMS 273 small cell lung, with SK-OV-3 ovarian, in the experiment on UACC-257 melanoma and in the experiment with DMS 114 small cell lung was more than 100 µM throughout. For the same compound, the TGI with XF 498 CNS, in the experiment on RPMI-8226 leukemia, in the experiment on UACC-62 melanoma, in the experiment with MOLT-4 leukemia and in the experiment on HCC-2998 colon was more than 100 µM each time.
Turning to `CNC(=O)SCC(N)C(=O)O` (stereo not given), the TGI in the experiment on SF-539 CNS, in the experiment with SK-MEL-28 melanoma, in the experiment with DMS 273 small cell lung, with HOP-62 NSCLC, in the experiment on SK-OV-3 ovarian and in the experiment on UACC-257 melanoma was more than 100 µM throughout. Besides, the TGI with U251 CNS, in the experiment with HCT-116 colon, with DMS 114 small cell lung, in the experiment with OVCAR-3 ovarian, in the experiment on XF 498 CNS and with RPMI-8226 leukemia was more than 100 µM each time. Moreover, the TGI in the experiment on UACC-62 melanoma, in the experiment on MOLT-4 leukemia, in the experiment on HCC-2998 colon and in the experiment with NCI-H460 lung was more than 100 µM throughout.
As for `CCOC(=O)c1c(Cl)nc2ccccc2c1N=[N+]=[N-]`, the TGI with SF-539 CNS was 37.7 µM; in the experiment on SK-MEL-28 melanoma, more than 100 µM; in the experiment with HOP-62 NSCLC, more than 100 µM; with SK-OV-3 ovarian, more than 100 µM; in the experiment with UACC-257 melanoma, 53.4 µM; in the experiment with U251 CNS it was 62.4 µM. For the same compound, the TGI in the experiment with HCT-116 colon is 43 µM; in the experiment with OVCAR-3 ovarian, 39.7 µM; with RPMI-8226 leukemia, more than 100 µM; with MOLT-4 leukemia, more than 100 µM; with HCC-2998 colon, more than 100 µM; with NCI-H460 lung, 63.6 µM.
In the case of `OC1CCOc2ccccc21` (stereo not given), the TGI with SF-539 CNS, in the experiment with SK-MEL-28 melanoma, with DMS 273 small cell lung, in the experiment on HOP-62 NSCLC, with SK-OV-3 ovarian and in the experiment with U251 CNS was more than 100 µM each time. Moreover, the TGI in the experiment on HCT-116 colon, in the experiment with DMS 114 small cell lung, with OVCAR-3 ovarian, with XF 498 CNS, in the experiment on RPMI-8226 leukemia and with UACC-62 melanoma was more than 100 µM throughout. Further, the TGI in the experiment with MOLT-4 leukemia, in the experiment with HCC-2998 colon and in the experiment with NCI-H460 lung was more than 100 µM throughout.
